This is an account of results in article PMC10547238, “Discovery of Potent Tetrazole Free Fatty Acid Receptor 2 Antagonists” (Journal of Medicinal Chemistry, 2023).

The nature of data set [1]: Lipophilicity (logD7.4), octanol/PBS7.4 shake flask. Type of data set: physicochemical. The conditions noted are these: 1-octanol/PBS7.4, pH 7.4; mean of two independent experiments. How it is done: The assay was performed in duplicates essentially as previously described.[58] A glass vial with a screw cap (8 mL) was charged with the test compound (40 μL, 10 mM in DMSO), PBS7.4 (0.01 M, 1980 μL), and 1-octanol (1980 μL). The vial was capped and sealed with a Parafilm and shaken at 700 rpm using an IKA KS 125 basic shaker for 24 h at 25 °C. The Parafilm was removed, and the sample was allowed to equilibrate for 1 h before analysis. One hundred microliters of the octanol phase was withdrawn and diluted 1:10 with MeOH (+0.1% TFA)/MilliQ water (4:1, v/v) and analyzed by HPLC. The interface was removed, and the PBS7.4 phase analyzed directly by HPLC. All analysis was performed in duplicates, and log D7.4 values were calculated from the peak areas (mAU·min) and adjusted for difference in injection volume and concentration-absorption effects from the solvents, using two calibration points per compound per solvent, and dilution of the octanol phase.

The target of a further data set is T1, hFFA2 (Homo sapiens, UniProt O15552).
T1 construct: expressed in transfected cells; host or cells: Flp-In T-Rex 293 cells, doxycycline-induced
T1 sequence (O15552 1-330): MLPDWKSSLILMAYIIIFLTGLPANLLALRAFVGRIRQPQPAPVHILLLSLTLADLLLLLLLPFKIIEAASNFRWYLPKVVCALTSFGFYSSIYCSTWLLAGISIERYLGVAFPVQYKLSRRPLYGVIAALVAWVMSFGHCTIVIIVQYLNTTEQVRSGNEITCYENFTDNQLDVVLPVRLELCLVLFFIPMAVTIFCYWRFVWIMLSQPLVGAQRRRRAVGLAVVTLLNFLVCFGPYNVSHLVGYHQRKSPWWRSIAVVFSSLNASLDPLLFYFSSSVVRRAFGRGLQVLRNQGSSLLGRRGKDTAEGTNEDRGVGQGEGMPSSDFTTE
The data set is described as follows: cAMP assay, antagonist mode, Flp-In T-Rex 293 cells expressing hFFA2-eYFP. Type of data set: cell-based. The conditions noted are these: for cAMP pIC50: hFFA2, antagonist mode, propionate at EC80, mean ± SEM, three or more experiments; for LLEcAMP: pIC50, cAMP – ClogP; for LLEcAMP-logD: pIC50, cAMP – logD7.4; for IC50: read-out: hFFA2 cAMP (pIC50) (converted). How it is done:
(§1) The activity of the compounds on FFA2 was evaluated in two different functional antagonist assays, both using propionate at EC80 as the agonist. The GTPγS assay reflects receptor activation by directly assessing G protein recruitment, whereas the cAMP assay, performed in whole cells, reflects a physiologically relevant downstream second messenger.
The hFFA2-eYFP and hFFA3-eYFP Flp-In T-Rex 293 cell lines were maintained in Dulbecco’s modified Eagle mMedium (DMEM, ThermoFisher #11965092) supplemented with 10% (v/v) fetal bovine serum, 100 U/mL penicillin, 100 μg/mL streptomycin, 5 μg/mL blasticidin S, and 200 μg/mL hygromycin B and incubated at 37 °C and 5% CO2 in a humidified incubator. Cells were passaged at 70–80% confluency.
To determine the compound’s ability to activate or inhibit the Gi-coupled FFA2 or FFA3, intracellular cAMP concentrations were determined using Flp-In T-Rex293 cells induced to express hFFA2-eYFP or hFFA3-eYFP. Experiments were carried out using a homogeneous time-resolved FRET-based detection kit (CisBio, PerkinElmer #62AM9PEC) according to the manufacturer’s protocol. The day before the assay, 10,000 cells/well were plated in DMEM supplemented with penicillin/streptomycin (100 units/mL and […], respectively), 5 μg/mL blasticidin S, and 200 μg/mL hygromycin B in 96-well cell culture microplates (Greiner Bio-One) and induced to express hFFA2-eYFP or hFFA3-YFP with 100 ng/mL doxycycline.
In antagonist mode, the cells were pre-incubated for 20 min with antagonist test compounds in HBSS together with 50 μM IBMX at rt. Then, the cells were further incubated for 25 min at rt in HBSS with the agonist compound, sodium propionate at EC80 (51.4 μM for FFA2, 13.2 μM for FFA3), and 3 μM forskolin. Reactions were stopped, and the output was measured with an Envision plate reader using a time-resolved fluorescence protocol, measuring the light emission at 620 and 665 nm. All analyses were performed in triplicate and analyzed using GraphPad Prism (version 9).

Data set [2] in a line: Kinetic aqueous solubility. The conditions noted are these: phosphate buffer; kinetic solubility in PBS at pH 7.4 and 25 °C. The class given is physicochemical. The procedure:
Twenty microliters of a 10 mM compound stock solution in DMSO was added to an Eppendorf tube containing 980 μL of phosphate buffer (10 mM, pH = 7.4). The samples were incubated in an Eppendorf Thermomixer (25 °C, 800 rpm) for 24 h. Afterward, the samples were centrifuged for 5 min at 11,000 rpm and the supernatant was filtered (0.2 μm PTFE membrane) before analysis by HPLC. Each compound was analyzed in duplicate. The solubility was calculated from the peak area relative to the reference samples (200 μM in MeOH/MilliQ H2O, 60/40, v/v).

For the next data set, the target named is T2, human FFA2-eYFP (Homo sapiens, UniProt O15552).
T2 construct: expressed in transfected cells; host or cells: membranes of Flp-In T-Rex 293 cells induced to express the construct
T2 sequence (O15552 1-330): T1 sequence (O15552 1-330)
The data set can be described thus: [35S]GTPγS incorporation assay, membranes of Flp-In T-Rex 293 cells. The conditions noted are these: for GTPγS pIC50: hFFA2, propionate at EC80, mean ± SEM, three or more experiments; for LLEGTPγS: pIC50, GTPγS – ClogP. Type of data set: biochemical. How it is done:
as §1
Functional activity of the compounds were tested in a [^35S]GTPγS incorporation assay using membranes of Flp-In T-Rex 293 cells induced to express human FFA2-eYFP. […] The reaction was initiated by addition of [^35S]GTPγS (100 nCi per reaction) containing 1 μM GDP and incubated at 30 °C for 60 min. The reaction was terminated by rapid vacuum filtration through GF/C glass fiber filter-bottom 96-well microplates (PerkinElmer Life Sciences, Beaconsfield, UK) using a UniFilter FilterMate Harvester (PerkinElmer). Unbound radioligands were removed from filters by three washes with ice-cold PBS. MicroScint-20 (PerkinElmer) was added to dried filters, and [^35S]GTPγS binding was quantified by liquid scintillation spectroscopy.

The nature of the next data set: Microsomal stability. The class given is in vitro ADME, mouse. The procedure: The assay was performed in duplicates essentially as described previously,[58] using male CD1 mouse liver microsomes (Thermo Fischer Scientific, 20 mg/mL), NADPH-regenerating agent Solution A and Solution B (Promega), potassium phosphate buffer (100 mM, pH 7.4), and test compounds (1 mM, diluted from 10 mM DMSO stock in the buffer). The samples were analyzed in an Agilent 6130 Mass Spectrometer instrument using electron spray ionization (ESI) coupled to an Agilent 1200 HPLC system (ESI-LCMS) with a C18 reverse phase column (Zorbax Eclipse XBD-C18, 4.6 mm × 50 mm) using a linear gradient of the binary solvent system of 100% mobile phase A (water:MeCN:formic acid, 95:5:0.1 v/v%) to 100% mobile phase B (MeCN:formic acid, 100:0.1 v/v %) in 6 min, with a flow rate of 1 mL/min.
To a pre-warmed solution of potassium phosphate buffer (135.6 μL) in an Eppendorf tube at 37 °C were added Solution A (7.5 μL), Solution B (1.5 μL), microsomes (3.9 μL), and the test compound (1 mM, 1.5 μL, final concentration = 10 μM). The tube was briefly vortexed and incubated at 37 °C in a thermomixer. At 0, 15, 30, 45, and 60 min, 25 μL of each sample was transferred to an ice-cold solution containing an internal standard (5 μM in MeCN, 12.5 μL). The sample was briefly vortexed and centrifuged for 5 min at 10.000g. The supernatant (25 μL) was transferred to HPLC vial and analyzed by ESI-LCMS in single ion mode. The data was analyzed using GraphPad Prism (version 9).

[3] abbreviates: % recovered after 60 min, mouse liver microsomes.

Values after ≈ are worked out from the molar mass of the structure shown.

As a reminder, the logD is lipophilicity at a set pH, counting ionised and neutral species. What is called solubility is the concentration that dissolves in the medium under given conditions. The low end stands for little dissolved substance, the high end for much dissolved substance. In data set [1], `Cc1cccc(CC(=O)N[C@@H](Cc2ccc(C(F)(F)F)cc2)Cc2nnn[nH]2)c1` [Compound 8, (S)-N-(1-(1H-Tetrazol-5-yl)-3-(4-(trifluoromethyl)phenyl)propan-2-yl)-2-(m-tolyl)acetamide] registered a logD at 25 h of 1.26 ± 0.07. Moreover, at hFFA2, the “cAMP pIC50” value was 8.30 ± 0.12, the LLEcAMP worked out at 5.24 and the LLEcAMP-logD is listed as 7.04. Besides, on hFFA2 (supplementary CSV), the IC50 was 5.62 nM. The compound further had a solubility at 24 h in data set [2] of 163 µM (≈ 65.8 µg/mL). Besides, on human FFA2-eYFP, the “GTPγS pIC50” value was 8.07 ± 0.08 and the LLEGTPγS was determined as 5.01. Moreover, on human FFA2-eYFP (vs 3), the “increased potency over CATPB (3)” value is “more than 10 fold”. For the same compound, at human FFA2-eYFP (vs 4), the “increase in potency over TUG-1958 (4)” value was 4 fold. In “Microsomal stability” (setting [3]), this compound displayed a microsomal stability of 89%. The same compound showed a microsomal stability in the data set “Microsomal stability” (supplementary CSV) of 89%.

Take `O=C(Cc1cccc(Br)c1)N[C@@H](Cc1ccc(C(F)(F)F)cc1)Cc1nnn[nH]1` [Compound 16g, (S)-N-(1-(1H-Tetrazol-5-yl)-3-(4-(trifluoromethyl)phenyl)propan-2-yl)-2-(3-bromophenyl)acetamide]: on hFFA2, the “cAMP pIC50” value is given as 8.21 ± 0.09 and the LLEcAMP stood at 4.78. Further, the “hFFA2 cAMP (pIC50)” value on hFFA2 (supplementary CSV) was 8.19 ± 0.19. Besides, the concentration in solution in data set [2] (solubility at 24 h) came to 121 µM (≈ 56.7 µg/mL). Besides, at human FFA2-eYFP, the “GTPγS pIC50” value is 8.30 ± 0.21 and the LLEGTPγS is 4.87.

In data set [1], `O=C(Cc1cccc(Cl)c1)N[C@@H](Cc1ccc(C(F)(F)F)cc1)Cc1nnn[nH]1` [Compound 16e, (S)-N-(1-(1H-Tetrazol-5-yl)-3-(4-(trifluoromethyl)phenyl)propan-2-yl)-2-(3-chlorophenyl)acetamide] registered a logD at 25 h of 1.8 ± 0.09. Also, on hFFA2, the “cAMP pIC50” value amounted to 8.15 ± 0.05, the LLEcAMP came to 4.87 and the LLEcAMP-logD stood at 6.35. Also, the IC50 at hFFA2 (supplementary CSV) was 6.61 nM. In addition, the concentration in solution in data set [2] (solubility at 24 h) was 138 µM (≈ 58.5 µg/mL). For the same compound, at human FFA2-eYFP, the “GTPγS pIC50” value is 8.53 ± 0.19 and the LLEGTPγS came to 5.25. Also, the microsomal stability in “Microsomal stability” (setting [3]) is on record as 92%. The compound further had a microsomal stability in the data set “Microsomal stability” (supplementary CSV) of 92%.

In the case of `O=C(Cc1cccc(I)c1)N[C@@H](Cc1ccc(C(F)(F)F)cc1)Cc1nnn[nH]1` [Compound 16h, (S)-N-(1-(1H-Tetrazol-5-yl)-3-(4-(trifluoromethyl)phenyl)propan-2-yl)-2-(3-iodophenyl)acetamide], on hFFA2, the “cAMP pIC50” value worked out at 8.26 ± 0.08 and the LLEcAMP came to 4.57. Further, the IC50 on hFFA2 (supplementary CSV) is 6.03 nM. This compound yielded a solubility at 24 h in data set [2] of 81 µM (≈ 41.7 µg/mL). In addition, at human FFA2-eYFP, the “GTPγS pIC50” value was 8.38 ± 0.05 and the LLEGTPγS turned out to be 4.69.

For the compound `O=C(Cc1ccccc1)N[C@@H](Cc1ccc(C(F)(F)F)cc1)Cc1nnn[nH]1` [Compound 16a, (S)-N-(1-(1H-Tetrazol-5-yl)-3-(4-(trifluoromethyl)phenyl)propan-2-yl)-2-phenylacetamide], on hFFA2, the “cAMP pIC50” value was 7.89 ± 0.20 and the LLEcAMP turned out to be 5.33. Moreover, the IC50 at hFFA2 (supplementary CSV) is 11.7 nM. On human FFA2-eYFP, the “GTPγS pIC50” value is 8.36 ± 0.09 and the LLEGTPγS stood at 5.80.

In the case of `CCOc1cccc(CC(=O)N[C@@H](Cc2ccc(C(F)(F)F)cc2)Cc2nnn[nH]2)c1` [Compound 16m, (S)-N-(1-(1H-Tetrazol-5-yl)-3-(4-(trifluoromethyl)phenyl)propan-2-yl)-2-(3-ethoxyphenyl)acetamide], at hFFA2, the “cAMP pIC50” value was 7.77 ± 0.12 and the LLEcAMP is 4.76. In addition, the IC50 on hFFA2 (supplementary CSV) is 15.8 nM. Also, at human FFA2-eYFP, the “GTPγS pIC50” value came to 8.05 ± 0.19 and the LLEGTPγS is 5.04.
